Test results published in PMC9219098 (ACS Omega, 2022).
Like-named read-outs stand apart in the source and are kept apart here.

Target: AChE (Homo sapiens, UniProt P22303)
Experiment: In vitro AChE enzyme assay
Type: biochemical

Chain of AChE (P22303 32-614): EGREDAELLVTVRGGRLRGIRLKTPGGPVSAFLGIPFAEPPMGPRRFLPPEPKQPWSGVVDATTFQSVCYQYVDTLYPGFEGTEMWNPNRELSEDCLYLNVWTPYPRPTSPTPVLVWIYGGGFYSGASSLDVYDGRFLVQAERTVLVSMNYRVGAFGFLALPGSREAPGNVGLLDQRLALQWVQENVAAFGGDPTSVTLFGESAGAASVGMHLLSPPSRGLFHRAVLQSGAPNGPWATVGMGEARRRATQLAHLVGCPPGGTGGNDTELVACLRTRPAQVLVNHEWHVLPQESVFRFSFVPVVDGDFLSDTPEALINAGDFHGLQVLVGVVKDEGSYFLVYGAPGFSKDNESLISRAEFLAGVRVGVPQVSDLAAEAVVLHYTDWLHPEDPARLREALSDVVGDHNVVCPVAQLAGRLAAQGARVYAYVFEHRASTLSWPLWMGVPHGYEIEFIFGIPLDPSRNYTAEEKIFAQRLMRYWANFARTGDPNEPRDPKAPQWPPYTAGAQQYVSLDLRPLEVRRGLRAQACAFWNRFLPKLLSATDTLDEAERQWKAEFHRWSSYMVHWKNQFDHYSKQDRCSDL

Compound | IC50 [µM] | IC50 (Ellman method, ACTI substrate, mean ± SD, triplicate) [µM]
CC(=O)C=Cc1ccc(C(F)(F)F)cc1 [CHEMBL74630, 1-[4-(trifluoromethyl)phenyl]but-1-en-3-one] | 26.3 ± 2.18 | –
Cc1cccc(C(=O)C(F)(F)F)c1 [CHEMBL86868, 3′-methyl-2,2,2-trifluoroacetophenone, reference compound] | 0.35 ± 0.03 | –
O=C(c1ccccc1)C(F)(F)F [CHEMBL293277, trifluoroacetophenone] | 4.61 ± 0.34 | –
COC(F)(F)C(F)(F)C(F)(F)C(F)(F)F [CHEMBL500823, methyl nonafluorobutyl ether] | – | 52.6 ± 4.14
FC(F)(F)C(F)(F)C(F)(F)C(F)(F)C(F)(F)C(F)(F)F [CHEMBL1200607, perflexane] | 50.7 ± 3.73 | –
